Where two headings read alike, the source gives them in different places.
What was measured:
[1] = target: T1, wild type human carboxypeptidase A1 (Homo sapiens, UniProt P15085); experiment: Enzyme kinetics of prodrugs with wild type human carboxypeptidase A1 (coupled assay); assay type: biochemical; conditions: for kcat (symbol ND): Human CPA1, rate too slow to assay
T1 sequence (P15085 111-419): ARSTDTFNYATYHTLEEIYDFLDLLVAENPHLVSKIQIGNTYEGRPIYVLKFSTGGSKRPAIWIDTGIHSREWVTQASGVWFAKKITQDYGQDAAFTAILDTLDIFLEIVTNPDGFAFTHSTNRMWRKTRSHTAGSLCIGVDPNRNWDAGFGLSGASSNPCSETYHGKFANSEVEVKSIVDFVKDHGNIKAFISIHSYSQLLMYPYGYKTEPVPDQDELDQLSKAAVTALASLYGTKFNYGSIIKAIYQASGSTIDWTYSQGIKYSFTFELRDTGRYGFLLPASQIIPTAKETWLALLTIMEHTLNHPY
From the text: (§1) As indicated herein, the in vivo stable prodrug of the present invention should be a better substrate for a mutant enzyme than the corresponding wild type enzyme in order for the stable prodrug to be activated selectively at the tumour. […] The most relevant kinetic constant in the table is the kcat/Km, which provides an estimate of the second order rate constant for the enzyme catalyzed conversion of prodrug to methotrexate. Thus, the larger the kcat/Km, the more efficient the enzyme with a particular substrate. […] Thus, the single mutation at 268 from thr to gly converted very poor substrates in the wild type enzyme to excellent substrates in the mutant enzyme. […] Thus, the compounds are much better substrates for the mutant enzyme than the wild type enzyme which permits very specific tumor targeted activation of the nontoxic, stable prodrug to the active agent.
(§2) Kinetics were determined by a modification of the coupled assay of Kuefner, et al (1989) Biochemistry 28 2288-2297 in which the product MTX is converted by excess carboxypeptidase G to the pteroate of MTX. In this assay the reaction is followed spectrophotometrically at 315 nm; at this wavelength the change in molar absorbtivity for the coupled reaction was determined to be 9.57 mM^-1 cm^-1. Assays were performed at 25° C. in 25 mM tris-HCl, 100 mM NaCl, pH 7.4. Prodrugs were preincubated at 25° C. with buffer and 17 milliunits of Sigma #C-9658 carboxypeptidase G in 1 ml total volume. Assay was initiated with carboxypeptidase A or the appropriate mutant. Initial velocities were obtained, and standard Michaelis-Menten calculations were used to determine kinetic constants (in Biochemistry, Lehninger, A. L. 1970, Worth Publishers, Inc, NY).

[2] = mouse, in vivo, iv
268ala = experiment: Enzyme kinetics of prodrugs with 268ala mutant of human CPA1 (coupled assay); assay type: biochemical
From the text: as §1, §2

268gly = experiment: Enzyme kinetics of prodrugs with 268gly mutant of human CPA1 (coupled assay); assay type: biochemical; conditions: for kcat/Km: 268Gly; for Km / kcat: 268gly, 25° C., pH 7.4
From the text: as §1, §2

in vivo = conditions: mouse, iv
mutant enzyme = experiment: Substrate behaviour with mutant enzyme; assay type: biochemical, human
From the text: This type of compound is not useful for ADEPT.

[3] = Stability and biodistribution of prodrugs in vivo (HPLC of plasma and tissues); design: species or system mice (CD-1 nude; BALB/C where indicated)
[4] = Prodrug toxicity, maximum tolerated dose; conditions: Swiss nu/nu mice, IV daily for 5 days
[5] = substrate: CN(Cc1cnc2nc(N)nc(N)c2n1)c1ccc(C(=O)N[C@@H](CCC(=O)O)C(=O)N[C@@H](Cc2ccccc2C2CCCC2)C(=O)O)cc1; experiment: Enzyme kinetics of prodrugs with wild type human carboxypeptidase A1 (coupled assay); assay type: biochemical; conditions: other: Human CPA1, 25° C., pH 7.4
From the text: as §1
(§3) Kinetics were determined by a modification of the coupled assay of Kuefner, et al (1989) Biochemistry 28 2288-2297 in which the product MTX is converted by excess carboxypeptidase G to the pteroate of MTX. In this assay the reaction is followed spectrophotometrically at 315 nm; at this wavelength the change in molar absorbtivity for the coupled reaction was determined to be 9.57 mM^-1 cm^-1. Assays were performed at 25° C. in 25 mM tris-HCl, 100 mM NaCl, pH 7.4. […]

[6] = substrate: CN(Cc1cnc2nc(N)nc(N)c2n1)c1ccc(C(=O)N[C@@H](CCC(=O)O)C(=O)N[C@@H](Cc2ccccc2)C(=O)O)cc1; experiment: as above; assay type: biochemical; conditions: other: Human CPA1, 25° C., pH 7.4
From the text: as §1, §3

[7] = IEF of proCPA and mature CPA; assay type: physicochemical
Experimental: The final OD600 was 14. […] All subsequent buffers contained 0.1 mM Zn-acetate. […] Total protein=368 mg.

## CN(Cc1cnc2nc(N)nc(N)c2n1)c1ccc(C(=O)N[C@@H](CCC(=O)O)C(=O)N[C@@H](Cc2cccc(C3CCC3)c2)C(=O)O)cc1
[1]
  human CPA catalyzed reaction (in words): not measureable
  kcat/Km for human CPA1 compared with that of the L-phenylalanine prodrug (in words): much lower
  kcat (symbol ND): ND (not determined; rate to slow assay. kcat ≤ 0.0005/sec.)
[2]
  dose showing some toxicity: 30 mg/kg
268ala; 25° C., pH 7.4
  Km: 160 µM
  kcat: 0.12 s⁻¹
268gly
  kcat/Km: 1.8e+06 M⁻¹ s⁻¹
  Km: 1.8 µM
  kcat: 3 s⁻¹
268gly; 268Gly with prodrug vs human CPA1 with L-phenylalanine prodrug
  activity of 268Gly relative to CPA1 with the L-phenylalanine prodrug of MTX: 4 times
In vivo
  MTD: < 30 mg/kg

## CN(Cc1cnc2nc(N)nc(N)c2n1)c1ccc(C(=O)N[C@@H](CCC(=O)O)C(=O)N[C@@H](Cc2cccc(C(C)(C)C)c2)C(=O)O)cc1 [Prodrug 12, N-(4-(((2,4-diamino-6-pterdinyl)methyl)methylamino)benzoyl)-L-glutam-1-yl-3-tert-butyl-L-phenylalanine]
[1]
  human CPA catalyzed reaction (in words): not measureable
  kcat/Km for human CPA1 compared with that of the L-phenylalanine prodrug (in words): much lower
  substrate for wild type CPA (in words): not for the wild type enzyme
  kcat (symbol ND): ND (not determined; rate to slow assay. kcat ≤ 0.0005/sec.)
268ala; rate too slow to assay
  kcat (symbol ND): ND (not determined; rate to slow assay. kcat ≤ 0.0005/sec.)
268gly
  activity of 268Gly compared with human CPA1 with the L-phenylalanine prodrug (in words): not different
  kcat/Km: 380000 M⁻¹ s⁻¹
  Km: 2.1 µM
  kcat: 0.81 s⁻¹
In vivo
  MTD: > 40 mg/kg
  NOAEL: ≥ 40 mg/kg
Mutant enzyme
  substrate for a mutant enzyme (in words): good substrates for a mutant enzyme
[3]; CECUM, 30 min, 50 mg/kg i.p. or i.v., CD-1 nude mice
  concentration of prodrug in cecum: 16.3 nmol/g
[3]; CECUM, 120 min, 50 mg/kg i.p. or i.v., CD-1 nude mice
  concentration of prodrug in cecum: 402.3 nmol/g
[3]; FECES, 30 min, 50 mg/kg i.p. or i.v., CD-1 nude mice
  concentration of prodrug in feces: 1205 nmol/g
[3]; FECES, 120 min, 50 mg/kg i.p. or i.v., CD-1 nude mice
  concentration of prodrug in feces: 1941 nmol/g
[3]; KIDNEY, 30 min, 50 mg/kg i.p. or i.v., CD-1 nude mice
  concentration of prodrug in kidney: 2.2 nmol/g
[3]; KIDNEY, 120 min, 50 mg/kg i.p. or i.v., CD-1 nude mice
  concentration of prodrug in kidney: 0.2 nmol/g
[3]; LARGE INTESTINE, 120 min, 50 mg/kg i.p. or i.v., CD-1 nude mice
  concentration of prodrug in large intestine: 14.7 nmol/g
[3]; LIVER, 30 min, 50 mg/kg i.p. or i.v., CD-1 nude mice
  concentration of prodrug in liver: 58.6 nmol/g
[3]; LIVER, 120 min, 50 mg/kg i.p. or i.v., CD-1 nude mice
  concentration of prodrug in liver: 39.5 nmol/g
[3]; SMALL INTESTINE, 30 min, 50 mg/kg i.p. or i.v., CD-1 nude mice
  concentration of prodrug in small intestine: 550.8 nmol/g
[3]; SMALL INTESTINE, 120 min, 50 mg/kg i.p. or i.v., CD-1 nude mice
  concentration of prodrug in small intestine: 44.9 nmol/g
[3]; TUMOR, 30 min, 50 mg/kg i.p. or i.v., CD-1 nude mice
  concentration of prodrug in tumor: 1.6 nmol/g
[3]; mice, 50 mg/kg
  stability in vivo (in words): stable in vivo
[3]; mouse, cecum, 50 mg/kg, CECUM, 30 min, 50 mg/kg i.p. or i.v., CD-1 nude mice, read-out: stability: percentage of material observed as intact prodrug, cecum
  remaining at 0.5 h: 100%
[3]; mouse, cecum, 50 mg/kg, CECUM, 120 min, 50 mg/kg i.p. or i.v., CD-1 nude mice, read-out: stability: percentage of material observed as intact prodrug, cecum
  remaining at 2 h: 80.7%
[3]; mouse, feces, 50 mg/kg, FECES, 30 min, 50 mg/kg i.p. or i.v., CD-1 nude mice, read-out: stability: percentage of material observed as intact prodrug, feces (converted)
  remaining at 0.5 h: 93%
[3]; mouse, feces, 50 mg/kg, FECES, 120 min, 50 mg/kg i.p. or i.v., CD-1 nude mice, read-out: stability: percentage of material observed as intact prodrug, feces
  remaining at 2 h: 82%
[3]; mouse, kidney, 50 mg/kg, KIDNEY, 30 min, 50 mg/kg i.p. or i.v., CD-1 nude mice, read-out: stability: percentage of material observed as intact prodrug, kidney
  remaining at 0.5 h: 53.4%
[3]; mouse, kidney, 50 mg/kg, KIDNEY, 120 min, 50 mg/kg i.p. or i.v., CD-1 nude mice, read-out: stability: percentage of material observed as intact prodrug, kidney
  remaining at 2 h: 21.6%
[3]; mouse, large intestine, 50 mg/kg, LARGE INTESTINE, 120 min, 50 mg/kg i.p. or i.v., CD-1 nude mice, read-out: stability: percentage of material observed as intact prodrug, large intestine
  remaining at 2 h: 66.9%
[3]; mouse, liver, 50 mg/kg, LIVER, 30 min, 50 mg/kg i.p. or i.v., CD-1 nude mice, read-out: stability: percentage of material observed as intact prodrug, liver (converted)
  remaining at 0.5 h: 91.3%
[3]; mouse, liver, 50 mg/kg, LIVER, 120 min, 50 mg/kg i.p. or i.v., CD-1 nude mice, read-out: stability: percentage of material observed as intact prodrug, liver
  remaining at 2 h: 89.2%
[3]; mouse, plasma, 50 mg/kg, PLASMA, 30 min, 50 mg/kg i.p. or i.v., CD-1 nude mice, read-out: concentration of prodrug in plasma
  concentration at 0.5 h: 2600 nM
[3]; mouse, plasma, 50 mg/kg, PLASMA, 30 min, 50 mg/kg i.p. or i.v., CD-1 nude mice, read-out: stability: percentage of material observed as intact prodrug, plasma
  remaining at 0.5 h: 100%
[3]; mouse, plasma, 50 mg/kg, PLASMA, 120 min, 50 mg/kg i.p. or i.v., CD-1 nude mice, read-out: concentration of prodrug in plasma
  concentration at 2 h: 700 nM
[3]; mouse, plasma, 50 mg/kg, PLASMA, 120 min, 50 mg/kg i.p. or i.v., CD-1 nude mice, read-out: stability: percentage of material observed as intact prodrug, plasma
  remaining at 2 h: 100%
[3]; mouse, small intestine, 50 mg/kg, SMALL INTESTINE, 30 min, 50 mg/kg i.p. or i.v., CD-1 nude mice, read-out: stability: percentage of material observed as intact prodrug, small intestine
  remaining at 0.5 h: 91%
[3]; mouse, small intestine, 50 mg/kg, SMALL INTESTINE, 120 min, 50 mg/kg i.p. or i.v., CD-1 nude mice, read-out: stability: percentage of material observed as intact prodrug, small intestine
  remaining at 2 h: 67%
[3]; mouse, tumor, 50 mg/kg, TUMOR, 30 min, 50 mg/kg i.p. or i.v., CD-1 nude mice, read-out: stability: percentage of material observed as intact prodrug, tumor
  remaining at 0.5 h: 92.8%

## CN(Cc1cnc2nc(N)nc(N)c2n1)c1ccc(C(=O)N[C@@H](CCC(=O)O)C(=O)O)cc1 [methotrexate, reference compound]
In vivo
  MTD: 4 mg/kg
[4]
  maximum tolerated dose (MTD): 2.5 mg/kg

B1: wild type human carboxypeptidase A1 (Homo sapiens) (protein)
chain: ARSTDTFNYATYHTLEEIYDFLDLLVAENPHLVSKIQIGNTYEGRPIYVLKFSTGGSKRPAIWIDTGIHSREWVTQASGVWFAKKITQDYGQDAAFTAILDTLDIFLEIVTNPDGFAFTHSTNRMWRKTRSHTAGSLCIGVDPNRNWDAGFGLSGASSNPCSETYHGKFANSEVEVKSIVDFVKDHGNIKAFISIHSYSQLLMYPYGYKTEPVPDQDELDQLSKAAVTALASLYGTKFNYGSIIKAIYQASGSTIDWTYSQGIKYSFTFELRDTGRYGFLLPASQIIPTAKETWLALLTIMEHTLNHPY
[5]
  Km: 61 µM
[6]
  Km: 4.3 µM
[7]
  pI: 6.2

B2: proCPA: procarboxypeptidase A, cleaved to mature CPA with trypsin (protein, UniProt P15085 17-419, looked up)
pro-form: KEDFVGHQVLRISVADEAQVQKVKELEDLEHLQLDFWRGPAHPGSPIDVRVPFPSIQAVKIFLESHGISYETMIEDVQSLLDEEQEQMFAFRSRARSTDTFNYATYHTLEEIYDFLDLLVAENPHLVSKIQIGNTYEGRPIYVLKFSTGGSKRPAIWIDTGIHSREWVTQASGVWFAKKITQDYGQDAAFTAILDTLDIFLEIVTNPDGFAFTHSTNRMWRKTRSHTAGSLCIGVDPNRNWDAGFGLSGASSNPCSETYHGKFANSEVEVKSIVDFVKDHGNIKAFISIHSYSQLLMYPYGYKTEPVPDQDELDQLSKAAVTALASLYGTKFNYGSIIKAIYQASGSTIDWTYSQGIKYSFTFELRDTGRYGFLLPASQIIPTAKETWLALLTIMEHTLNHPY
modifications: pro-form
notes: procarboxypeptidase A, cleaved to mature CPA with trypsin
[7]
  pI: 4.75

Reference: patent publication US6319702A, “Nucleic acids encoding mutant human carboxypeptidase A enzymes” (Glaxo Wellcome, Inc., priority 1993, dated 2001)
